Test system: ill-health symptoms of Lead intoxication
Assay: Inventor's trial-and-error self-administration of vitamins to alleviate Lead intoxication symptoms
Type: in vivo, human
Settings: for soothing of Lead intoxication symptoms: Beta Carotene around 20,000 I.U. and vitamin E around 100 I.U. in the formula, Lead intoxication with no other health conditions
Source text: I was already taking vitamins, so I started working with variety of vitamins in varying doses to alleviate the suffering. This was like an experiment on my body to find a balanced dose to alleviate Lead intoxication symptoms. It took me one and half decade to find the correct mix and proportion of vitamins. I will explain later why it took me so many years.
Vitamins dose was working correctly, however, I was taking certain quantity of milk (Calcium) in my diet so dose was adjusted with certain quantity of milk also. […] However, most of the symptoms as described earlier were alleviated with vitamins. In 2001, dizziness was extreme and glucose test was very close to borderline. Additional symptoms like some weight gain, elevated blood pressure and elevated cholesterol were noted. I realized immediately that I have done something wrong in working out the vitamin dose for Lead intoxication so I reversed engineering to figure out the dose with less quantity of milk. In 2005-2006 timeframe, I started gaining confidence that vitamin dose to cure Lead intoxication is absolutely correct and I decided to file the patent papers. […] I wish I could have this dose in 1990 then I didn't have to go through all the suffering and pain from 1990-2005, almost fifteen years. Therefore the vitamin dose or multi-vitamin formula for Lead intoxication is determined by trial and error method and is the result of fifteen years of work. Sometimes God makes the things happen for purpose and I was chosen the vehicle.
All these symptoms depend upon the amount of lead in body and the kind of diet and vitamins I was taking. I went through lot of ups and downs in figuring out the vitamin dose or formula to cure Lead induced ill-health symptoms. I gained so much experience by working trial and error methods on vitamins that I could simulate most of these symptoms in my body. […] I have shown this formula below as OM-50 dose, primarily because some vitamins' quantities are in 50 unit. Multiply all the ingredients by 2 will give OM-100, and divide by 2 will give OM-25, and so on.

## CC1=C(/C=C/C(C)=C/C=C/C(C)=C/C=C/C=C(C)/C=C/C=C(C)/C=C/C2=C(C)CCCC2(C)C)C(C)(C)CCC1 [Beta Carotene]
Beta Carotene 30,000 I.U. in the formula, Lead intoxication plus heavy bleeding and/or elevated sugar level
  effectiveness during heavy bleeding and/or elevated sugar level: very effective
  soothing of Lead intoxication symptoms: soothe very effectively

## vitamin E
  soothing of Lead intoxication symptoms: soothe very effectively
